Reference: paper PMC4237513 (European Journal of Medicinal Chemistry, 2014)
Where two headings read alike, the source gives them in different places.

Columns and labels:
[1] = test system: dengue virus (DENV); assay: microbe, parasite or virus in culture; format: cell-based; settings: for EC50: read-out: Dengue EC50
[2] = test system: yellow fever virus (YFV); assay: microbe, parasite or virus in culture; format: cell-based; settings: for EC50: read-out: Yellow fever EC50
[3] = in vitro; settings: chlorocebus sabaeus
[4] = Yellow fever virus, Vero B, 168 h

For `Cc1ccc(NC(=O)c2nc[nH]c2C(=O)Nc2ccc(F)cc2)c(-c2cc(C)n[nH]2)c1` [15a, N^5-(4-fluorophenyl)-N^4-(4-methyl-2-(3-methyl-1H-pyrazol-5-yl)phenyl)-1H-imidazole-4,5-dicarboxamide], the EC50 ([1]; Dengue virus, Vero B, 168 h) was 2.5 µM, the EC50 [2, 4] was 3.37 µM and the EC50 [2] was 3.47 µM. It also gave a CC50 ([3]; Dengue CC50) of over 120 µM and a CC50 ([3]; Yellow fever CC50) of over 120 µM.
In the case of `Cc1cc(-c2ccccc2NC(=O)c2nc[nH]c2C(=O)Nc2ccc(F)cc2)[nH]n1` [15b, N^5-(4-fluorophenyl)-N^4-(2-(3-methyl-1H-pyrazol-5-yl)phenyl)-1H-imidazole-4,5-dicarboxamide], the EC50 ([1]; Dengue virus, Vero B, 168 h) is reported as 6.03 µM, the EC50 [2, 4] is reported as 1.85 µM and the CC50 at 168 h ([3]; Dengue CC50) is reported as 21.7 µM. It also gave a CC50 ([3]; Yellow fever CC50) of over 121 µM.
For `O=C(NCc1ccccc1-c1ccncc1)c1nc[nH]c1C(=O)Nc1ccc(F)cc1` [15c, N^5-(4-fluorophenyl)-N^4-(2-(pyridin-4-yl)benzyl)-1H-imidazole-4,5-dicarboxami-de], the EC50 ([1]; Dengue virus, Vero B, 168 h) was 1.92 µM, the EC50 [1] was 1.93 µM and the EC50 [2, 4] was 3.9 µM. The CC50 at 168 h ([3]; Dengue CC50) was 50.1 µM and the CC50 ([3]; Yellow fever CC50) was over 120 µM.
Molecule `O=C(NCc1ccccc1-c1ccsc1)c1nc[nH]c1C(=O)Nc1ccc(F)cc1` [15d, N^5-(4-fluorophenyl)-N^4-(2-(thiophen-3-yl)benzyl)-1H-imidazole-4,5-dicarbox amide] has an EC50 ([1]; Dengue virus, Vero B, 168 h) of 8.88 µM, an EC50 [2, 4] of 2.61 µM and a CC50 at 168 h ([3]; Dengue CC50) of 17.3 µM. For the same molecule, the CC50 at 168 h ([3]; Yellow fever CC50) was 34.5 µM.
Molecule `O=C(NCc1ccc(-c2cccnc2)cc1)c1nc[nH]c1C(=O)Nc1ccc(F)cc1` [15e, N^5-(4-fluorophenyl)-N^4-(4-(pyridin-3-yl)benzyl)-1H-imidazole-4,5-dicarboxamide] has an EC50 ([1]; Dengue virus, Vero B, 168 h) of 42.1 µM, an EC50 [2, 4] of 11.8 µM and a CC50 ([3]; Dengue CC50) of over 120 µM. For the same molecule, the CC50 ([3]; Yellow fever CC50) was over 118 µM.
With `O=C(NCc1ccc(-c2ccsc2)cc1)c1nc[nH]c1C(=O)Nc1ccc(F)cc1` [15f, N^5-(4-fluorophenyl)-N^4-(4-(thiophen-3-yl)benzyl)-1H-imidazole-4,5-dicarboxamide] the EC50 ([1]; Dengue virus, Vero B, 168 h) was 33.7 µM, the EC50 [2, 4] was 28.8 µM and the CC50 at 168 h ([3]; Dengue CC50) was 20.2 µM. It also gave a CC50 ([3]; Yellow fever CC50) of over 119 µM.
Molecule `O=C(NCc1ccc(-c2ccncc2)cc1)c1nc[nH]c1C(=O)Nc1ccc(F)cc1` [15g, N^5-(4-fluorophenyl)-N^4-(4-(pyridin-4-yl)benzyl)-1H-imidazole-4,5-dicarboxamide] has an EC50 ([1]; Dengue virus, Vero B, 168 h) of over 120 µM, an EC50 [2, 4] of over 120 µM and a CC50 ([3]; Dengue CC50) of over 120 µM. The CC50 ([3]; Yellow fever CC50) was over 120 µM.
For `Cc1ccc(NC(=O)c2nc[nH]c2C(=O)Nc2ccc(F)cc2)c(-c2ccsc2)c1` [15h, N^5-(4-fluorophenyl)-N^4-(4-methyl-2-(thiophen-3-yl)phenyl)-1H-imidazole-4,5-dicarboxamide], the EC50 ([1]; Dengue virus, Vero B, 168 h) was 48.8 µM, the EC50 [2, 4] was over 119 µM and the CC50 ([3]; Dengue CC50) was over 117 µM. It also gave a CC50 ([3]; Yellow fever CC50) of over 119 µM.
With `Cc1ccc(NC(=O)c2nc[nH]c2C(=O)Nc2ccc(F)cc2)c(-c2ccco2)c1` [15i, N^5-(4-fluorophenyl)-N^4-(2-(furan-2-yl)-4-methylphenyl)-1H-imidazole-4,5-dicarboxamide] the EC50 ([1]; Dengue virus, Vero B, 168 h) was over 124 µM and the CC50 ([3]; Dengue CC50) was over 124 µM.
Work on `Cc1ccc(NC(=O)c2nc[nH]c2C(=O)Nc2ccccc2)c(-c2ccsc2)c1` [15j, N^4-(4-methyl-2-(thiophen-3-yl)phenyl)-N^5-phenyl-1H-imidazole-4,5-dicarboxamide] yielded an EC50 ([1]; Dengue virus, Vero B, 168 h) of over 124 µM, an EC50 [2, 4] of 9.2 µM and a CC50 ([3]; Dengue CC50) of over 124 µM. For the same molecule, the CC50 ([3]; Yellow fever CC50) was over 120 µM.
`Cc1ccc(NC(=O)c2[nH]cnc2C(=O)Nc2ccc(C)cc2-c2ccsc2)cc1` [15k, N^4-(4-methyl-2-(thiophen-3-yl)phenyl)-N^5-(p-tolyl)-1H-imidazole-4,5-dicarboxamide] gave an EC50 ([1]; Dengue virus, Vero B, 168 h) of 2.02 µM, an EC50 [2, 4] of over 120 µM and a CC50 ([3]; Dengue CC50) of over 50 µM. It also gave a CC50 ([3]; Yellow fever CC50) of over 120 µM.
With `Cc1ccc(NC(=O)c2[nH]cnc2C(=O)Nc2ccc(C)cc2-c2ccco2)cc1` [15l, N^4-(2-(furan-2-yl)-4-methylphenyl)-N^5-(p-tolyl)-1H-imidazole-4,5-dicarboxamide] the EC50 ([1]; Dengue virus, Vero B, 168 h) was 3.47 µM and the CC50 ([3]; Dengue CC50) was over 125 µM.
In the case of `Cc1ccc(NC(=O)c2nc[nH]c2C(=O)NCc2ccccc2)c(-c2ccco2)c1` [15m, N^5-benzyl-N^4-(2-(furan-2-yl)-4-methylphenyl)-1H-imidazole-4,5-dicarboxamide], the “DENV inhibitory activity in words” value [1] is reported as “annihilated the inhibitory properties”, the EC50 ([1]; Dengue virus, Vero B, 168 h) is reported as over 125 µM and the CC50 ([3]; Dengue CC50) is reported as over 125 µM.
With `Cc1ccc(NC(=O)c2nc[nH]c2C(=O)NCCc2ccc(F)cc2)c(-c2ccco2)c1` [15n, N^5-(4-fluorophenethyl)-N^4-(2-(furan-2-yl)-4-methylphenyl)-1H-imidazole-4,5-dicarboxamide] the EC50 ([1]; Dengue virus, Vero B, 168 h) was 3.77 µM and the CC50 ([3]; Dengue CC50) was over 116 µM.
For `Cc1cnc(NC(=O)c2[nH]cnc2C(=O)Nc2ccccc2)c(-c2ccc(C)s2)c1` [15o, N^5-(5-methyl-3-(5-methylthiophen-2-yl)pyridin-2-yl)-N^4-phenyl-1H-imidazole-4,5-dicarboxamide], the “DENV inhibitory activity in words” value [1] was “inactive”, the EC50 ([1]; Dengue virus, Vero B, 168 h) was over 120 µM and the EC50 [2, 4] was over 120 µM. The CC50 at 168 h ([3]; Dengue CC50) was 26.4 µM and the CC50 ([3]; Yellow fever CC50) was over 119 µM.
In the case of `O=C(NCc1ccc(-c2ccncc2)cc1)c1nccnc1C(=O)Nc1ccc(F)cc1` [20a, N^2-(4-fluorophenyl)-N^3-(4-(pyridin-4-yl)benzyl) pyrazine-2,3-dicarboxamide], the “fold increase in anti-DENV potency” value [1] is reported as 2 fold, the EC50 ([1]; Dengue virus, Vero B, 168 h) is reported as 0.93 µM and the EC50 [2, 4] is reported as 7.49 µM. For the same molecule, the CC50 ([3]; Dengue CC50) was over 118 µM and the CC50 ([3]; Yellow fever CC50) was over 120 µM.
In the case of `Cc1ccc(NC(=O)c2nccnc2C(=O)Nc2ccc(F)cc2)c(-c2cccnc2)c1` [20b, N^2-(4-fluorophenyl)-N^3-(4-methyl-2-(pyridin-3-yl)phenyl) pyrazine-2,3-dicarboxamide], the “DENV inhibitory activity in words” value [1] is reported as “strongly inhibiting”, the EC50 ([1]; Dengue virus, Vero B, 168 h) is reported as 0.93 µM and the EC50 [2, 4] is reported as 13.1 µM. It also gave a CC50 ([3]; Dengue CC50) of over 118 µM and a CC50 ([3]; Yellow fever CC50) of over 118 µM.
`O=C(NCc1ccc(-c2cccnc2)cc1)c1nccnc1C(=O)Nc1ccc(F)cc1` [20c, N^2-(4-fluorophenyl)-N^3-(4-(pyridin-3-yl)benzyl) pyrazine-2,3-dicarboxamide] gave an EC50 ([1]; Dengue virus, Vero B, 168 h) of 2.99 µM, an EC50 [2, 4] of 8.9 µM and a CC50 ([3]; Dengue CC50) of over 115 µM. For the same molecule, the CC50 ([3]; Yellow fever CC50) was over 116 µM.
Molecule `O=C(Nc1ccc(F)cc1)c1nccnc1C(=O)Nc1ccccc1-c1ccncc1` [20d, N^2-(4-fluorophenyl)-N^3-(2-(pyridin-4-yl)phenyl) pyrazine-2,3-dicarboxamide] has an EC50 ([1]; Dengue virus, Vero B, 168 h) of 11.7 µM, an EC50 [2, 4] of 8.22 µM and a CC50 ([3]; Dengue CC50) of over 117 µM. For the same molecule, the CC50 ([3]; Yellow fever CC50) was over 123 µM.
`O=C(Nc1ccc(F)cc1)c1nccnc1C(=O)Nc1ccccc1-c1cccnc1` [20e, N^2-(4-fluorophenyl)-N^3-(2-(pyridin-3-yl)phenyl) pyrazine-2,3-dicarboxamide] showed an EC50 ([1]; Dengue virus, Vero B, 168 h) of 23.2 µM, an EC50 [2, 4] of 47.5 µM and a CC50 ([3]; Dengue CC50) of over 120 µM. For the same molecule, the CC50 ([3]; Yellow fever CC50) was over 119 µM.
In the case of `O=C(NCc1ccccc1-c1ccncc1)c1nccnc1C(=O)Nc1ccc(F)cc1` [20f, N^2-(4-fluorophenyl)-N^3-(2-(pyridin-4-yl)benzyl) pyrazine-2,3-dicarboxamide], the “fold decrease in activity against DENV” value [1] is reported as 20 fold, the EC50 ([1]; Dengue virus, Vero B, 168 h) is reported as 40.7 µM and the “fold decrease in activity against YFV” value [2] is reported as 6 fold. For the same molecule, the EC50 [2, 4] was 21.3 µM, the CC50 ([3]; Dengue CC50) was over 118 µM and the CC50 ([3]; Yellow fever CC50) was over 127 µM.
`Cc1ccc(NC(=O)c2nccnc2C(=O)Nc2ccc(F)cc2)c(-c2ccncc2)c1` [20g, N^2-(4-fluorophenyl)-N^3-(4-methyl-2-(pyridin-4-yl)phenyl)pyrazine-2,3-dicarbox amide] gave an EC50 ([1]; Dengue virus, Vero B, 168 h) of over 117 µM, an EC50 [2, 4] of 48.4 µM and a CC50 ([3]; Dengue CC50) of over 117 µM. It also gave a CC50 ([3]; Yellow fever CC50) of over 125 µM.
In the case of `Cc1ccc(NC(=O)c2nccnc2C(=O)NCc2ccc(-c3ccncc3)cc2)cc1` [20h, N^2-(4-(pyridin-4-yl)benzyl)-N^3-(p-tolyl) pyrazine-2,3-dicarboxamide], the EC50 ([1]; Dengue virus, Vero B, 168 h) is reported as 16.6 µM, the EC50 [2, 4] is reported as 36.8 µM and the CC50 at 168 h ([3]; Dengue CC50) is reported as 74.7 µM. The CC50 ([3]; Yellow fever CC50) was over 110 µM.
With `Cc1ccc(NC(=O)c2nccnc2C(=O)Nc2ccc(C)cc2-c2cccnc2)cc1` [20i, N^2-(4-methyl-2-(pyridin-3-yl)phenyl)-N^3-(p-tolyl) pyrazine-2,3-dicarboxamide] the EC50 ([1]; Dengue virus, Vero B, 168 h) was 10.6 µM, the EC50 [2, 4] was 18.4 µM and the CC50 at 168 h ([3]; Dengue CC50) was 47.5 µM. For the same molecule, the CC50 at 168 h ([3]; Yellow fever CC50) was 75.5 µM.
`Cc1ccc(NC(=O)c2nccnc2C(=O)NCc2ccc(-c3cccnc3)cc2)cc1` [20j, N^2-(4-(pyridin-3-yl)benzyl)-N^3-(p-tolyl) pyrazine-2,3-dicarboxamide] gave an EC50 ([1]; Dengue virus, Vero B, 168 h) of 6.75 µM, an EC50 [2, 4] of 73.1 µM and a CC50 ([3]; Dengue CC50) of over 116 µM. The CC50 ([3]; Yellow fever CC50) was over 124 µM.
Molecule `Cc1ccc(NC(=O)c2nccnc2C(=O)Nc2ccccc2-c2ccncc2)cc1` [20k, N^2-(2-(pyridin-4-yl)phenyl)-N^3-(p-tolyl) pyrazine-2,3-dicarboxamide] has an EC50 ([1]; Dengue virus, Vero B, 168 h) of 4.71 µM, an EC50 [2, 4] of 12.5 µM and a CC50 ([3]; Dengue CC50) of over 122 µM. The CC50 ([3]; Yellow fever CC50) was over 125 µM.
Molecule `Cc1ccc(NC(=O)c2nccnc2C(=O)Nc2ccccc2-c2cccnc2)cc1` [20l, N^2-(2-(pyridin-3-yl)phenyl)-N^3-(p-tolyl) pyrazine-2,3-dicarboxamide] has an EC50 ([1]; Dengue virus, Vero B, 168 h) of 14.6 µM, an EC50 [2, 4] of over 122 µM and a CC50 ([3]; Dengue CC50) of over 128 µM. The CC50 ([3]; Yellow fever CC50) was over 122 µM.
For `Cc1ccc(NC(=O)c2nccnc2C(=O)Nc2ccc(C)cc2-c2ccncc2)cc1` [20n, N^2-(4-methyl-2-(pyridin-4-yl)phenyl)-N^3-(p-tolyl) pyrazine-2,3-dicarboxamide], the EC50 ([1]; Dengue virus, Vero B, 168 h) was 11.9 µM, the EC50 [2, 4] was 30.9 µM and the CC50 ([3]; Dengue CC50) was over 119 µM. The CC50 ([3]; Yellow fever CC50) was over 118 µM.
